Reference: patent US11076595B2, “1-(n,n-disubstituted carbamoyl) 4-(substituted sulfonyl)triazolin-5-one derivative, 4-(n,n-disubstituted carbamoyl) 1-(substituted sulfonyl)triazolin-5-one derivative, and herbicide containing said derivative as active ingredient” (HOKKO CHEMICAL INDUSTRY CO., LTD., priority 2017, dated 2021)

Assays:
Type in all cases: in vivo
[1] = tested on: Scirpus juncoides; experiment: Test Example 12: herbicidal effect test by treatment during growing period in paddy field; settings: 120 g/10a; treatment seven days after sowing in flooded paddy pot; assessed 14 days after treatment
Procedure: (§1) This test was performed with two replications per one formulation concentration plot, and 14 days after the formulation treatments, the weed suppression rate (%) was determined according to the following equation (Math. 2). Weed suppression rate (%)=(1−average dry weight (g) of plants in treated plots/average dry weight (g) of plants in untreated plots)×100 [Math. 2]
(§2) A Wagner pot having an area of 1/10000 are was filled with paddy field soil and after adding water, a chemical fertilizer (N:P:K=17:17:17) was mixed, followed by puddling. Thereafter, 30 grains of each of Echinochloa crus-galli, broad-leaved weed (Lindernia pyxidaria, Monochoria vaginalis) and Scirpus juncoides seeds were sown to a depth of 0 to 1 cm. Immediately after the sowing, the pot was flooded, and the depth of water was kept at about 3 cm. The pot was subsequently managed in a glass greenhouse. Seven Days after sowing, an emulsifiable concentrate prepared according to Formulation Example 15 by using the compound shown in Table 10 below was diluted with water, and a predetermined amount of the water-diluted formulation was added dropwise. The application rate of the active ingredient, by conversion, corresponded to 120 g per 10 are. The test was performed with two replications per one formulation concentration plot, and 14 days after the formulation treatments, the weed suppression rate (%) was determined according to the equation (Math. 2).

[2] = tested on: Lindernia pyxidaria; experiment: as above; settings: 120 g/10a; treatment seven days after sowing in flooded paddy pot; assessed 14 days after treatment
Procedure: as §1, §2

[3] = tested on: Echinochloa crus-galli; experiment: as above; settings: 120 g/10a; treatment seven days after sowing in flooded paddy pot; assessed 14 days after treatment
Procedure: as §1, §2

[4] = tested on: Monochoria vaginalis; experiment: as above; settings: 120 g/10a; treatment seven days after sowing in flooded paddy pot; assessed 14 days after treatment
Procedure: as §1, §2

[5] = tested on: Scirpus juncoides; experiment: Test Example 11: herbicidal effect test by soil treatment in paddy field; settings: 120 g/10a active ingredient, 14 days after treatment
Procedure, shortened: (§3)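 Dry weight at day 14 relative to untreated controls gives the suppression rate; duplicate pots. Treatment: 120 g a.i./10 are into paddy water at sowing.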

[6] = tested on: Lindernia pyxidaria; experiment: as above; settings: 120 g/10a active ingredient, 14 days after treatment
Procedure, shortened: as §3

[7] = tested on: Echinochloa crus-galli; experiment: as above; settings: 120 g/10a active ingredient, 14 days after treatment
Procedure, shortened: as §3

[8] = tested on: Monochoria vaginalis; experiment: as above; settings: 120 g/10a active ingredient, 14 days after treatment
Procedure, shortened: as §3

SMILES | Weed suppression rate (%) Scirpus juncoides [1] | Weed suppression rate (%) Lindemia pyxidaria [2] | Weed suppression rate (%) Echinochloa crus-galli [3] | Weed suppression rate (%) Monochoria vaginalis [4] | Weed suppression rate (%) Scirpus juncoides [5] | Weed suppression rate (%) Lindemia pyxidaria [6] | Weed suppression rate (%) Echinochloa crus-galli [7] | Weed suppression rate (%) Monochoria vaginalis [8]
CC(C)N(C(=O)n1cnn(S(=O)(=O)C2CC2)c1=O)c1c(F)c(F)cc(F)c1F [Compound 11-197] | 90% | 80% | 100% | 100% | 100% | 100% | 100% | 70%
CC(C)N(C(=O)n1cnn(S(=O)(=O)c2c(F)c(F)c(F)c(F)c2F)c1=O)c1ccccc1F [Compound 11-801] | 60% | 60% | 90% | 80% | 90% | 90% | 90% | 90%
CC(C)N(C(=O)n1cnn(S(=O)(=O)c2ccc(Cl)cc2)c1=O)c1ccc(F)c(F)c1F [Compound 11-591] | 100% | 70% | 60% | 70% | 60% | 90% | 100% | 70%
CC(C)N(C(=O)n1cnn(S(=O)(=O)N(C)C)c1=O)c1ccc(C(F)(F)F)cc1Cl [Compound 11-1084] | 90% | 80% | 90% | 80% | 90% | 80% | 90% | 80%
CC(C)N(C(=O)n1cnn(S(=O)(=O)c2ccc(C(C)(C)C)cc2)c1=O)c1c(F)c(F)cc(F)c1F [Compound 11-687] | 70% | 70% | 100% | 80% | 90% | 100% | 80% | 100%
CC(C)N(C(=O)n1cnn(S(=O)(=O)C(C)C)c1=O)c1ccc(Br)cc1Cl [Compound 11-70] | 100% | 70% | 100% | 90% | 100% | 100% | 100% | 90%
Cc1ccc(S(=O)(=O)n2ncn(C(=O)N(c3cccc(F)c3)C(C)C)c2=O)cc1 [Compound 11-628] | 90% | 80% | 90% | 80% | 90% | 80% | 90% | 80%
CC(C)N(C(=O)n1cnn(S(=O)(=O)c2cccc(F)c2)c1=O)c1c(F)cc(F)cc1F [Compound 11-442] | 80% | 80% | 100% | 90% | 80% | 80% | 100% | 70%
Cc1ccc(S(=O)(=O)n2ncn(C(=O)N(c3c(F)cccc3F)C(C)C)c2=O)cc1 [Compound 11-639] | 70% | 70% | 100% | 70% | 100% | 100% | 100% | 70%
CC(C)N(C(=O)n1cnn(S(C)(=O)=O)c1=O)c1ccc(F)c(F)c1F [Compound 11-15] | 100% | 60% | 70% | 60% | 60% | 70% | 90% | 60%
CC(C)N(C(=O)n1cnn(S(=O)(=O)c2cccc(F)c2)c1=O)c1ccc(F)c(F)c1F [Compound 11-441] | 100% | 60% | 100% | 80% | 100% | 90% | 100% | 60%
CC(C)N(C(=O)n1cnn(S(=O)(=O)c2ccccc2Cl)c1=O)c1ccc(Cl)cn1 [Compound 11-536] | 90% | 80% | 90% | 60% | 60% | 90% | 90% | 60%
CC(C)N(C(=O)n1cnn(S(=O)(=O)c2cccs2)c1=O)c1c(F)c(F)cc(F)c1F [Compound 11-1027] | 100% | 80% | 100% | 90% | 100% | 100% | 100% | 90%
CC(C)N(C(=O)n1cnn(S(C)(=O)=O)c1=O)c1ccccc1F [Compound 11-2] | 90% | 90% | 90% | 80% | 90% | 80% | 90% | 80%
CC(C)N(C(=O)n1cnn(S(=O)(=O)C2CC2)c1=O)c1ccc(Cl)cc1Br [Compound 11-210] | 90% | 80% | 90% | 80% | 90% | 90% | 90% | 80%
